Earlier results in patent US11753409B2, “Crystalline salts of a B-RAF kinase inhibitor” (Xynomic Pharmaceuticals, Inc., priority 2017, dated 2023).

Columns and labels:
[1] = tested on: human B-RAF-mutant melanoma cells; conditions: cited from earlier work
[2] = tested on: wild-type cells; conditions: at 1,000 nmol/L; cited from earlier work
[3] = tested on: B-RAF-mutant melanomas and colorectal carcinomas; conditions: cited from earlier work
[4] = tested on: A375 melanoma; conditions: particularly in combination with trametinib; cited from earlier work
[5] = treated mice; cited from earlier work
[6] = rats, up to 60 mg/kg daily for 2 weeks; cited from earlier work

CCCS(=O)(=O)Nc1ccc(F)c(-n2cc(-c3cncnc3)c3nc(N(C)C4CCN(CC)CC4)ccc32)c1F [BI 882370, N-(3-(5-((1-ethylpiperidin-4-yl)(methyl)amino)-3-(pyrimidin-5-yl)-1H-pyrrolo[3,2-b]pyridin-1-yl)-2,4-difluorophenyl)propane-1-sulfonamide]
Potency, inhibition of proliferation [1]: 1 to 10 nM
Potency relative to vemurafenib ([1]; higher potency than vemurafenib): 100 times
Effect on wild-type cells [2]: not affected
Efficacy compared with vemurafenib, dabrafenib, or trametinib ([3]; 25 mg/kg twice daily, oral): superior efficacy
Efficacy in mouse models ([3]; solution administered orally): efficacious
Activity in vemurafenib-resistant model [4]: active
Body weight loss or clinical signs of intolerability [5]: did not show any body weight loss or clinical signs of intolerability
Pathologic changes in several major organs, including skin [5]: no pathologic changes were observed
Toxicity (clinical chemistry, hematology, pathology, toxicogenomics) [6]: lacked toxicity
